Test results from ChEMBL document CHEMBL1129901, “Amide bond surrogates: A study in thiophenesulfonamide based endothelin receptor antagonists” (Bioorg Med Chem Lett, 1997).
pIC50: −log10 of the molar value.

Tests used:
[1] = target: T1, Endothelin receptor type B (Homo sapiens, UniProt P24530); experiment: Inhibition of human Endothelin B receptor using I-ET-1 as radioligand in a competitive radioligand assay
T1 sequence (P24530 whole entry): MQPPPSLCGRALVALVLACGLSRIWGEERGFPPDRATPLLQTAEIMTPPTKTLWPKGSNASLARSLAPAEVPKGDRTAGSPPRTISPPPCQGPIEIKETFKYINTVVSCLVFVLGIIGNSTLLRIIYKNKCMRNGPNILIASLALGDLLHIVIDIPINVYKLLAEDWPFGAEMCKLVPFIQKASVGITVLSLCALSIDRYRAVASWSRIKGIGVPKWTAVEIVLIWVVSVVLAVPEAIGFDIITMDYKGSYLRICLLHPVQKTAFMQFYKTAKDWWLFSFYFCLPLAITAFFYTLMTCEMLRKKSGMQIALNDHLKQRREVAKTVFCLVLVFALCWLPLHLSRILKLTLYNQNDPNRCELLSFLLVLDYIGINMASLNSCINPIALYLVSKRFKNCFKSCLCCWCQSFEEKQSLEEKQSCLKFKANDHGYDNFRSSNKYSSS

Endothelin-1 receptor [2] = target: T2, Endothelin-1 receptor (Homo sapiens, UniProt P25101); experiment: Inhibitory of human Endothelin A receptor by using I-ET-1 as radioligand in a competitive radioligand assay
T2 sequence (P25101 whole entry): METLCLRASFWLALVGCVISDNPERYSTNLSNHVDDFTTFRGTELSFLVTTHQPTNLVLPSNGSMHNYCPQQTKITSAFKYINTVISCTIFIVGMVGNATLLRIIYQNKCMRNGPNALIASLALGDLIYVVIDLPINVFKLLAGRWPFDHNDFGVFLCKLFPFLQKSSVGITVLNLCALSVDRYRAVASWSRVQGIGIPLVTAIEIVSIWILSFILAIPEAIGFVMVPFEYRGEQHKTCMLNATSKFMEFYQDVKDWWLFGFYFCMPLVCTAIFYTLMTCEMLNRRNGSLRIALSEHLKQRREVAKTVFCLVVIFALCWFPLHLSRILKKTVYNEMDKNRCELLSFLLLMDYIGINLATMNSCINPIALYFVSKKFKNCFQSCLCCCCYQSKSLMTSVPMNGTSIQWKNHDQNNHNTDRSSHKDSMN

[3] = target: T1, Endothelin receptor type B; experiment: Tested for the inhibitory activity of cloned human ETB receptor by using I-ET-1 as radioligand in a competitive radioligand assay
Endothelin-1 receptor [4] = target: T2, Endothelin-1 receptor; experiment: Tested for the inhibitory activity of cloned human ETA receptor by using I-ET-1 as radioligand in a competitive radioligand assay

SMILES | pIC50 [1] | pIC50 (Endothelin-1 receptor [2]) | pIC50 [3] | pIC50 (Endothelin-1 receptor [4])
Cc1cc(C)c(CCc2sccc2S(=O)(=O)Nc2onc(C)c2Br)c(C)c1 | 5.68 | 7.34 | – | –
Cc1cc(C)c(/C=C/c2ccsc2S(=O)(=O)Nc2onc(C)c2Br)c(C)c1 | 5.76 | 7.28 | – | –
Cc1ccc(/C=C/c2sccc2S(=O)(=O)Nc2onc(C)c2Br)c(C)c1 | 5.53 | 6.78 | – | –
Cc1ccc(CCc2ccsc2S(=O)(=O)Nc2onc(C)c2Br)c(C)c1 | – | 6.99 | – | –
Cc1cc(C)c(/C=C/c2sccc2S(=O)(=O)Nc2onc(C)c2Br)c(C)c1 | 5.70 | 7.36 | – | –
Cc1cc(C)c(CCc2ccsc2S(=O)(=O)Nc2onc(C)c2Br)c(C)c1 | 5.86 | 7.24 | – | –
Cc1noc(NS(=O)(=O)c2ccsc2CCc2ccc3c(c2)OCO3)c1Br | 5.03 | 6.69 | – | –
Cc1ccc(CCc2sccc2S(=O)(=O)Nc2onc(C)c2Br)cc1 | 4.93 | – | – | –
Cc1noc(NS(=O)(=O)c2sccc2/C=C/c2ccc3c(c2)OCO3)c1Br | 5.00 | 6.66 | – | –
Cc1ccc(/C=C/c2sccc2S(=O)(=O)Nc2onc(C)c2Br)cc1 | 5.38 | 6.64 | – | –
Cc1noc(NS(=O)(=O)c2sccc2/C=C/c2cc3c(cc2COC2CCOCC2)OCO3)c1Br | 5.38 | 7.14 | – | –
Cc1cc2c(cc1/C=C/c1ccsc1S(=O)(=O)Nc1onc(C)c1Br)OCO2 | – | – | 5.27 | 7.14
Cc1ccc(/C=C/c2ccsc2S(=O)(=O)Nc2onc(C)c2Br)cc1 | 5.18 | – | – | –
Cc1noc(NS(=O)(=O)c2sccc2CCc2ccc3c(c2)OCO3)c1Br | 4.75 | 6.63 | – | –
Cc1cc(C)c(NC(=O)c2sccc2S(=O)(=O)Nc2onc(C)c2Cl)c(C)c1 | – | 6.20 | – | –
Cc1cc2c(cc1CCc1ccsc1S(=O)(=O)Nc1onc(C)c1Br)OCO2 | 4.90 | 7.04 | – | –
Cc1noc(NS(=O)(=O)c2sccc2/C=C/c2cc3c(cc2CO)OCO3)c1Br | 5.49 | 7.10 | – | –
Cc1noc(NS(=O)(=O)c2ccsc2/C=C/c2ccc3c(c2)OCO3)c1Br | 5.28 | 6.85 | – | –
Cc1cc2c(cc1CCc1sccc1S(=O)(=O)Nc1onc(C)c1Br)OCO2 | 5.05 | 7.21 | – | –
Cc1cc2c(cc1/C=C/c1sccc1S(=O)(=O)Nc1onc(C)c1Br)OCO2 | 5.48 | 7.09 | – | –
Cc1ccc(/C=C/c2ccsc2S(=O)(=O)Nc2onc(C)c2Br)c(C)c1 | 5.53 | 6.74 | – | –
